Here are results for 5 compounds from patent US11252960B2 (KIMBERLY-CLARK WORLDWIDE, INC., priority 2017, dated 2022).

The conditions of data set [1]: 25° C., cited from earlier work; for Solubility of Parabens, Ethanol: solvent ethanol; for Solubility of Parabens, Propylene glycol: solvent propylene glycol; for Solubility of Parabens, Water: solvent water.
For data set [2], the system named is Pseudomonas aeruginosa (ATCC 9027). Put plainly: Anti-bacterial Minimum Inhibitory Concentration (MIC) Method, microbroth dilution. It is filed as cell-based. As to conditions: Table 4; CAMHB, 37° C., 24 hours, pH 4.5-adjusted stock. On the procedure: (§1) Anti-Bacterial and Anti-Fungal Minimum Inhibitory Concentration (MIC) Method Method: Microbroth Dilution Method (96-well format). Test item: […] Solvent: Sterile MilliQ water and 0.1 M Citrate Buffer pH 4.5 Media used: • Bacterial: Cation-Adjusted Mueller-Hinton Broth (CAMHB) • Fungi: RPMI-1640 […] Fungi: • Incubation Temperature: • 25° C. (Candida albicans) • 35° C. (Aspergillus brasiliensis) • Incubation Time: 48 hours • Inoculum Size: 5×10^4 cfu/mL • Strains: • Candida albicans (ATCC 10231) • Aspergillus brasiliensis (ATCC 16404) • End point: Inhibition of growth, Spectrophotometer Reading @ 600 nm • Reference standards: […] All solubilized and pH 4.5-adjusted test compounds were filter-sterilized before subjecting to MIC study. […] All the strains were inoculated on their respective agar medium and incubated under conditions/durations detailed above. • Preparation of inoculum: • The bacterial colony suspension in 0.85% saline was adjusted to 1 McFarland's standard using […] which was further diluted to 1:100 in CAMHB. The fungal suspension for inoculation was prepared in 0.85% saline from 6 days old culture (for mold, A. brasiliensis) and from 2 days old culture (for yeast, C. albicans) from Sabouraud Dextrose agar medium. […] Micro titer plates were prepared as per the CLSI recommendations. One hundred and seventy five microliters of Cation-adjusted Muller Hinton Broth (CAMHB) was added to the first column of a 96 well flat bottom plate, which is the media control. Second column is for the stocks of the test compounds and reference standards from which dilutions are made. Then 175 μL of CAMHB was added to the 5th, 8th and 11th columns, 75 μL of CAMHB to the 4th, 7th and 10th columns and 50 μL of CAMHB to the 3rd, 6th and 9th columns and the last column was the organism control.

The test system of data set [3] is Staphylococcus aureus (ATCC 6538). The data set is described as above. It is filed as cell-based. The conditions noted are these: Table 4; CAMHB, 37° C., 24 hours, pH 4.5-adjusted stock. How it is done:
as §1

For data set [4], the system named is Burkholderia cepacia (ATCC 25416). The data set is described as above. It is filed as cell-based. As to conditions: Table 4; CAMHB, 37° C., 24 hours, pH 4.5-adjusted stock. On the procedure:
as §1

Data set [5] deals with Escherichia coli (ATCC 8739). Described as above. The data set is classed as cell-based. As to conditions: Table 4; CAMHB, 37° C., 24 hours, pH 4.5-adjusted stock. How it is done:
as §1

Data set [6] concerns Aspergillus brasiliensis (ATCC 16404). In words: Anti-fungal Minimum Inhibitory Concentration (MIC) Method, microbroth dilution. It is filed as cell-based. The conditions noted are these: Table 4, RPMI-1640, 35° C., 48 hours, pH 4.5-adjusted stock. How it is done:
(§2) Anti-Bacterial and Anti-Fungal Minimum Inhibitory Concentration (MIC) Method Method: Microbroth Dilution Method (96-well format). Test item: […] Solvent: Sterile MilliQ water and 0.1 M Citrate Buffer pH 4.5 Media used: • Bacterial: Cation-Adjusted Mueller-Hinton Broth (CAMHB) • Fungi: RPMI-1640 Fungi: • Incubation Temperature: • 25° C. (Candida albicans) • 35° C. (Aspergillus brasiliensis) • Incubation Time: 48 hours • Inoculum Size: 5×10^4 cfu/mL • Strains: • Candida albicans (ATCC 10231) • Aspergillus brasiliensis (ATCC 16404) • End point: Inhibition of growth, Spectrophotometer Reading @ 600 nm • Reference standards: […] All solubilized and pH 4.5-adjusted test compounds were filter-sterilized before subjecting to MIC study. […] All the strains were inoculated on their respective agar medium and incubated under conditions/durations detailed above. • Preparation of inoculum: • The bacterial colony suspension in 0.85% saline was adjusted to 1 McFarland's standard using […] which was further diluted to 1:100 in CAMHB. The fungal suspension for inoculation was prepared in 0.85% saline from 6 days old culture (for mold, A. brasiliensis) and from 2 days old culture (for yeast, C. albicans) from Sabouraud Dextrose agar medium. […] Micro titer plates were prepared as per the CLSI recommendations. One hundred and seventy five microliters of Cation-adjusted Muller Hinton Broth (CAMHB) was added to the first column of a 96 well flat bottom plate, which is the media control. Second column is for the stocks of the test compounds and reference standards from which dilutions are made. Then 175 μL of CAMHB was added to the 5th, 8th and 11th columns, 75 μL of CAMHB to the 4th, 7th and 10th columns and 50 μL of CAMHB to the 3rd, 6th and 9th columns and the last column was the organism control.
(In general: In broth dilution the organism is exposed to a series of concentrations in liquid medium.)

Data set [7] relates to Candida albicans (ATCC 10231). The data set is described as above. As to conditions: Table 4, RPMI-1640, 25° C., 48 hours, pH 4.5-adjusted stock. The data set is classed as cell-based. How it is done:
as §2

The format of data set [8] is physicochemical. The conditions noted are these: pH 4.5. On the procedure: This water was used as a test media for determining the solubility of test/reference items. Stock solutions of concentration 1 mg/mL for test items/reference items was prepared in methanol. The stock solution will be used for preparation of calibration curve standards. Calibration curve of test/reference items was prepared by serially dilution consisting of 4-5-6 concentrations in 96 well format. […] The method was as follows: Calibration curve of test items were prepared by serial dilution consisting of 8 concentrations. […] Water, 50:50). […] 40 mg of test items were weighed into tubes. […] The initial pH of the solubility samples were recorded. […] Then, the solutions were observed visually for any precipitation. […] An aliquot of the supernatant were diluted with equal volume of methanol. […] The samples were then transferred to UV plate and scanned at λmax of that particular test/reference item. Compound #12 was transferred to auto-sampler vials and submitted for LC-MS/MS analysis.

Data set [9] is described as follows: Determination of Dissociation Constant (pKa) by Potentiometric Titration Method. The data set is classed as physicochemical. As to conditions: pH 4.5, Table 3, 0.1 mg/ml, 22° C. On the procedure:
Potentiometric Titration Method: A calibrated pH meter was used for the assay. 50 mL solution of each test/reference item solution (0.1 mg/mL) was added to four beakers (two for acid titration and two for base titration). 0.1 N Sodium hydroxide (NaOH) solution was prepared as titrant solution. The pH electrode was placed into the beaker containing test/reference item solution. The initial pH of the solution will be recorded. 100 μL of 0.1 N NaOH was added successively with stirring and the pH at each addition was recorded. Base titrations were carried out individually in duplicates until a sudden shift in the pH was observed.

For `CCOC(=O)c1ccc(O)cc1` [Ethylparaben], in [1], the “Solubility of Parabens, Ethanol” value is given as 41 % w/w; the “Solubility of Parabens, Propylene glycol” value is reported as 20 % w/w; the “Solubility of Parabens, Water” value is 0.11 % w/w.

In the case of `O=C(OCCCO)c1ccccc1` [Compound 11, Benzoic acid 3-hydroxy-propyl ester], in data set [2], the “MIC (%) P. aeruginosa” value is above 0.272%. In [3], the “MIC (%) S. Aureus” value was 0.272%. Further, the “MIC (%) B. cepacia” value in [4] was 0.136%. Also, the “MIC (%) E. coli” value in data set [5] came out at 0.272%. Moreover, the “MIC (%) A. brasiliensis” value in data set [6] is 0.068%. In data set [7], the “MIC (%) C. albicans” value stood at 0.136%. The “Solubility (wt %)” value in data set [8] is reported as 0.55 wt %. Further, in data set [9], the pKa is above 7.

As for `O=C(OCC(O)CO)c1ccccc1` (centres unmarked) [Compound 9, Benzoic acid 2,3-dihydroxypropyl ester], in data set [2], the “MIC (%) P. aeruginosa” value is recorded as 0.5%. In addition, the “MIC (%) S. Aureus” value in [3] is 0.25%. Besides, the “MIC (%) B. cepacia” value in data set [4] was determined as 0.25%. Besides, the “MIC (%) E. coli” value in data set [5] was 0.5%. Further, the “MIC (%) A. brasiliensis” value was above 1% in data set [6] and above 1.0% in [6] (listed as #9). The “MIC (%) C. albicans” value in data set [7] is above 1%; in data set [7] (listed as #9), above 1.0%. In addition, the “Solubility (wt %)” value in data set [8] is listed as above 1.0 wt %. This compound displayed a pKa in [9] (ultrapure water) above 7.

Consider `CCCCOC(=O)c1ccc(O)cc1` [Butylparaben], for which, in data set [1], the “Solubility of Parabens, Ethanol” value is 68 % w/w; the “Solubility of Parabens, Propylene glycol” value is given as 49 % w/w; the “Solubility of Parabens, Water” value is on record as 0.02 % w/w.

Turning to `O=C(OCCCCO)c1ccccc1` [Compound 10, Benzoic acid 4-hydroxy-butyl ester], the “MIC (%) P. aeruginosa” value in data set [2] was determined as 0.115%. For the same compound, the “MIC (%) S. Aureus” value in data set [3] was found to be 0.057%. Moreover, in data set [4], the “MIC (%) B. cepacia” value is reported as 0.057%. Further, in data set [5], the “MIC (%) E. coli” value is 0.115%. For the same compound, in data set [6], the “MIC (%) A. brasiliensis” value is 0.028%. In addition, in data set [7], the “MIC (%) C. albicans” value worked out at 0.115%. Besides, in [8], the “Solubility (wt %)” value is given as 0.47 wt %. In data set [9] (ultrapure water), this compound displayed a pKa above 7.

As a reminder, the pKa is the negative logarithm of the acid dissociation constant. Higher therefore signals a group that holds its proton tightly.
